Data published in ChEMBL document CHEMBL5131401, “Structural Basis for Developing Multitarget Compounds Acting on Cysteinyl Leukotriene Receptor 1 and G-Protein-Coupled Bile Acid Receptor 1” (J Med Chem, 2021).
In brackets after ≈: the same amount, converted by molar mass.

How the values were obtained:
[1] = Lipophilicity, logD of the compound in octanol and phosphate buffer at pH 7.4 incubated for 2 hrs under shaking condition by LC-MS/MS analysis; assay type: physicochemical
[2] = Aqueous solubility of compound in pH 7.4 PBS buffer measured after 24 hrs by LC-MS/MS analysis; assay type: physicochemical
[3] = Metabolic stability in human liver microsomes assessed as half life at 1 uM measured up to 60 mins in presence of NADPH by LC-MS/MS analysis; assay type: ADME, Microsome; conditions: for half-life at 1 µM: liver microsomes
[4] = Metabolic stability in human liver S9 fraction assessed as half life at 1 uM measured after 2 hrs in presence of NADPH by LC-MS/MS analysis; assay type: ADME, subcellular

| logD at 2 h [1] | solubility at 24 h [2] | half-life at 1 µM [3] | half-life at 1 µM [4] | t1/2 ([3]; microsomes, 1 h, 1 µM) | SMILES |
| --- | --- | --- | --- | --- | --- |
| 0.12 | > 200 µM |  |  |  | O=C(O)c1cccc(OCc2ccc3ccccc3n2)c1 |
| 1.01 | 3.5 µM (≈ 1.12 µg/mL) | 22.3 min |  |  | CCC(C)COc1cccc(OCc2ccc3ccccc3n2)c1 (stereo not drawn) |
| 2.8 | 141 µM (≈ 37.4 µg/mL) | 48 min | 119 min |  | OCc1cccc(OCc2ccc3ccccc3n2)c1 |
| 3.1 | 39.3 µM (≈ 13.2 µg/mL) |  | 57 min | 37 h | CCCCCC(O)c1cccc(OCc2ccc3ccccc3n2)c1 (stereo not drawn) [REV-5901] |
